How the values were obtained:
[1] = (§1) The drug is tested on WLS-310 corresponding to human gut metagenome with ENA study accession number: PRJEB37062 and ENA sample accession number: ERS12561785 for biotransformation under anaerobic condition. The drug concentrations were measured over 9 timepoints collected between 0 and 24 hours of incubation by liquid-chromatography-coupled mass spectrometry (LC–MS); details: 2 µM
[2] = as §1, with “WLS-086” for “WLS-310”, “ERS12561752” for “ERS12561785”; details: 2 µM
[3] = human gut metagenome, 24 h, 2 µM
[4] = human gut metagenome, 24 h, 2 µM; remark: listed apart in the source
[5] = human gut metagenome, 24 h, 2 µM; remark: listed apart in the source
[6] = human gut metagenome, 24 h, 2 µM; remark: listed apart in the source
[7] = human gut metagenome, 24 h, 2 µM; remark: listed apart in the source
[8] = human gut metagenome, 24 h, 2 µM; remark: listed apart in the source
[9] = human gut metagenome, 24 h, 2 µM; remark: listed apart in the source
[10] = human gut metagenome, 24 h, 2 µM; remark: listed apart in the source
[11] = human gut metagenome, 24 h, 2 µM; remark: listed apart in the source
[12] = human gut metagenome, 24 h, 2 µM; remark: listed apart in the source
[13] = human gut metagenome, 24 h, 2 µM; remark: listed apart in the source
[14] = as §1, with “Z-030” for “WLS-310”, “mouse” for “human”, “ERS12561829” for “ERS12561785”; details: 2 µM
[15] = as §1, with “Z-025” for “WLS-310”, “rabbit” for “human”, “ERS12561824” for “ERS12561785”; details: 2 µM
[16] = as §1, with “Z-016” for “WLS-310”, “mouse” for “human”, “ERS12561815” for “ERS12561785”; details: 2 µM
[17] = as §1, with “Z-023” for “WLS-310”, “to” for “to human gut”, “ERS12561822” for “ERS12561785”; details: 2 µM
[18] = as §1, with “Z-014” for “WLS-310”, “rat” for “human”, “ERS12561814” for “ERS12561785”; details: 2 µM
[19] = as §1, with “Z-018” for “WLS-310”, “pig” for “human”, “ERS12561817” for “ERS12561785”; details: 2 µM
[20] = as §1, with “Z-019” for “WLS-310”, “rat” for “human”, “ERS12561818” for “ERS12561785”; details: 2 µM
Note: call rule not given here.

SMILES | Bacterial Biotransformation [1] | Bacterial Biotransformation [2] | Bacterial Biotransformation [3] | Bacterial Biotransformation [4] | Bacterial Biotransformation [5] | Bacterial Biotransformation [6] | Bacterial Biotransformation [7] | Bacterial Biotransformation [8] | Bacterial Biotransformation [9] | Bacterial Biotransformation [10] | Bacterial Biotransformation [11] | Bacterial Biotransformation [12] | Bacterial Biotransformation [13] | Bacterial Biotransformation [14] | Bacterial Biotransformation [15] | Bacterial Biotransformation [16] | Bacterial Biotransformation [17] | Bacterial Biotransformation [18] | Bacterial Biotransformation [19] | Bacterial Biotransformation [20]
OC(CCN1CCCCC1)(c1ccccc1)C1CC2C=CC1C2 (configuration not stated) [BIPERIDEN] | Compound metabolized | Compound metabolized | Compound NOT metabolized | Compound NOT metabolized | Compound NOT metabolized | Compound NOT metabolized | Compound NOT metabolized | Compound NOT metabolized | Compound metabolized | Compound metabolized | Compound NOT metabolized | Compound NOT metabolized | Compound metabolized | – | – | – | – | – | – | –
CN1CCc2cccc3c2[C@H]1Cc1ccc(O)c(O)c1-3 [APOMORPHINE] | Compound NOT metabolized | Compound NOT metabolized | Compound NOT metabolized | Compound NOT metabolized | Compound NOT metabolized | Compound NOT metabolized | Compound NOT metabolized | – | Compound NOT metabolized | Compound NOT metabolized | Compound NOT metabolized | Compound NOT metabolized | Compound NOT metabolized | Compound NOT metabolized | Compound metabolized | Compound NOT metabolized | – | – | – | –
Cc1ccc(/C(=C\CN2CCCC2)c2ccccn2)cc1 [TRIPROLIDINE] | Compound NOT metabolized | Compound NOT metabolized | Compound NOT metabolized | Compound NOT metabolized | Compound NOT metabolized | Compound NOT metabolized | Compound NOT metabolized | Compound NOT metabolized | Compound NOT metabolized | Compound NOT metabolized | Compound NOT metabolized | Compound metabolized | Compound NOT metabolized | – | Compound NOT metabolized | Compound NOT metabolized | Compound NOT metabolized | Compound NOT metabolized | – | –
CN1CCN(CC/C=C2/c3ccccc3Sc3ccc(S(=O)(=O)N(C)C)cc32)CC1 [THIOTHIXENE] | Compound metabolized | Compound metabolized | Compound metabolized | Compound metabolized | Compound metabolized | Compound metabolized | Compound metabolized | Compound metabolized | Compound metabolized | Compound metabolized | Compound metabolized | Compound metabolized | Compound metabolized | – | – | – | – | – | – | –
COC(=O)C1=C(C)NC(C)=C(C(=O)OC(C)C)C1c1cccc2nonc12 (configuration not stated) [ISRADIPINE] | Compound metabolized | Compound metabolized | Compound metabolized | Compound metabolized | Compound metabolized | Compound metabolized | Compound metabolized | Compound metabolized | Compound metabolized | Compound NOT metabolized | Compound metabolized | Compound metabolized | Compound metabolized | – | – | – | – | – | – | –
C#C[C@]1(O)CC[C@H]2[C@@H]3CCC4=Cc5oncc5C[C@]4(C)[C@H]3CC[C@@]21C [DANAZOL] | Compound metabolized | Compound metabolized | Compound metabolized | – | – | – | – | Compound metabolized | – | – | Compound metabolized | – | Compound metabolized | Compound metabolized | Compound metabolized | Compound NOT metabolized | Compound metabolized | Compound NOT metabolized | – | –
CNC(=C[N+](=O)[O-])NCCSCc1csc(CN(C)C)n1 [NIZATIDINE] | Compound metabolized | Compound metabolized | Compound metabolized | Compound metabolized | Compound NOT metabolized | Compound NOT metabolized | Compound metabolized | Compound metabolized | Compound metabolized | Compound metabolized | Compound NOT metabolized | Compound NOT metabolized | Compound metabolized | Compound metabolized | Compound NOT metabolized | Compound NOT metabolized | Compound NOT metabolized | Compound NOT metabolized | Compound NOT metabolized | –
Cc1nc2n(c(=O)c1CCN1CCC(c3noc4cc(F)ccc34)CC1)CCCC2O (configuration not stated) [PALIPERIDONE] | Compound metabolized | Compound metabolized | Compound metabolized | Compound metabolized | Compound metabolized | Compound metabolized | Compound metabolized | Compound metabolized | Compound metabolized | Compound metabolized | Compound metabolized | Compound metabolized | Compound metabolized | Compound metabolized | – | Compound NOT metabolized | Compound metabolized | Compound NOT metabolized | Compound NOT metabolized | –
CCC1(c2ccc(N)cc2)CCC(=O)NC1=O (configuration not stated) [AMINOGLUTETHIMIDE] | Compound NOT metabolized | Compound NOT metabolized | Compound NOT metabolized | Compound NOT metabolized | Compound NOT metabolized | Compound NOT metabolized | Compound NOT metabolized | Compound NOT metabolized | Compound NOT metabolized | Compound NOT metabolized | Compound NOT metabolized | Compound NOT metabolized | Compound NOT metabolized | – | – | Compound NOT metabolized | – | Compound NOT metabolized | Compound metabolized | Compound NOT metabolized
CN1C[C@H](C(=O)N[C@]2(C)O[C@@]3(O)[C@@H]4CCCN4C(=O)[C@H](Cc4ccccc4)N3C2=O)C=C2c3cccc4[nH]cc(c34)C[C@H]21.CN1C[C@H](C(=O)N[C@]2(C)O[C@@]3(O)[C@@H]4CCCN4C(=O)[C@H](Cc4ccccc4)N3C2=O)C=C2c3cccc4[nH]cc(c34)C[C@H]21.O=C(O)C(O)C(O)C(=O)O [ERGOTAMINE TARTRATE] | Compound metabolized | Compound metabolized | Compound metabolized | Compound metabolized | Compound NOT metabolized | Compound metabolized | Compound metabolized | Compound NOT metabolized | Compound metabolized | Compound metabolized | – | Compound metabolized | Compound metabolized | – | – | – | – | – | – | –
CC(=O)O[C@]1(C(C)=O)CC[C@H]2[C@@H]3C=C(Cl)C4=CC(=O)[C@@H]5C[C@@H]5[C@]4(C)[C@H]3CC[C@@]21C [CYPROTERONE ACETATE] | Compound metabolized | Compound metabolized | Compound metabolized | Compound metabolized | Compound metabolized | Compound metabolized | Compound metabolized | Compound metabolized | Compound metabolized | Compound NOT metabolized | Compound metabolized | Compound metabolized | Compound metabolized | – | – | – | Compound metabolized | – | – | –

Reference: ChEMBL document CHEMBL5724914, “Linking interpersonal differences in gut microbiota composition and drug biotransformation activity” (2024)
